Measurements from PubChem BioAssay (NCI).
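Cells were grown in 96-well plates and exposed to each compound for 48 hours at five concentrations; endpoints were interpolated linearly between bracketing concentrations, or set to the highest concentration if not reached. At the GI50, growth is halved. At the TGI there is no net growth.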

How the values were obtained:
Test in all cases: growth of human tumour cells (NCI), 48 h
[1] = system: A498 renal
[2] = system: A549 NSCLC
[3] = system: CAKI-1 renal
[4] = system: IGROV1 ovarian
[5] = system: K-562 leukemia
[6] = system: LOX IMVI melanoma
[7] = system: NCI-H460 lung
[8] = system: RPMI-8226 leukemia
[9] = system: SNB-19 CNS
[10] = system: UACC-62 melanoma

Structure (SMILES)	GI50 [1] [µM]	TGI [1] [µM]	GI50 [2] [µM]	TGI [2] [µM]	GI50 [3] [µM]	TGI [3] [µM]	GI50 [4] [µM]	TGI [4] [µM]	GI50 [5] [µM]	TGI [5] [µM]	GI50 [6] [µM]	TGI [6] [µM]	GI50 [7] [µM]	TGI [7] [µM]	GI50 [8] [µM]	TGI [8] [µM]	GI50 [9] [µM]	TGI [9] [µM]	GI50 [10] [µM]	TGI [10] [µM]
O=S(=O)(NC1=NCCN1C(=S)SN1CCn2c1nsc2=S)c1ccc(OC(F)(F)F)cc1	15.9	29.7	21.1	54.3	17.5	74.5	11.4	29.1	4.02	19.8	8.6	22.9	13.1	48.5	6.1	> 100	16.8	32.1	11.6	24.4
C=C(CN1CCN(c2ccc(Cl)cc2F)CC1)c1ccc(C(=O)Nc2ccccc2N)cc1	3.03	> 80.4	2.56	> 30.5	2.72	> 100	1.16	14.8	1.12	> 100	3	8.43	3.23	> 100	0.628	3.21		> 34.3	2.42	> 92.1
Cn1cc(C2=C(c3cn(C)c4ncccc34)C(=O)NC2=O)c2ccccc21	3.73	11	10.1	> 25	4.79	> 17.2	15.5	> 25	6.99	> 25	6.97	> 25	9.96	> 25	9.04	> 23.2	11.2	> 25	11.7	> 25
COc1ccc(-c2nc3sccn3c2/C(N)=N/C(=N)N)cc1OC	> 100	> 100	> 100	> 100	87.7	> 100	3.26	7.11	27.6	> 100	37.5	> 100	46.7	> 100	58.5	> 100	35.3	> 100	66	> 100
N#CC1C(C#N)C2(c3ccccc3)C(c3ccccc3)=NN(c3ccccc3)CC12 (stereo not drawn)		> 100		> 100		> 100		> 100		> 100		> 100		> 100		> 100		> 100		> 100
O=C1C(Cl)=C(Nc2cccc(Cl)c2)C(=O)N1Cc1ccc(Cl)cc1Cl	0.771	7.12	3.85	19.6	5.36	48.5	< 0.023	9.15	0.834	> 87.5	< 0.0316	11.5	2.68	21	3.18	15.4	0.842	18	0.446	4.83
COc1ccc(C(=O)Cn2c(C(=O)c3ccccc3)nc(-c3ccc(OC)cc3)c2-c2ccc(OC)cc2)cc1	> 100	> 100	> 100	> 100	52.7	> 100	71.2	> 100	> 100	> 100	> 100	> 100	> 100	> 100	> 100	> 100	> 100	> 100	98.3	> 100
O=C(COc1ccc(Br)cc1Br)N1N=C(c2ccc([N+](=O)[O-])o2)CC1(O)c1ccccc1 (stereo not drawn)		23.8		72.2		65.3		75.9		> 100		18.4		20.4		8.96		68.2		18.7
N#CCCN(CCC#N)c1ccc(/C=C2\N=C(c3cc([N+](=O)[O-])ccc3Cl)OC2=O)cc1		> 100		> 100		> 100		> 100		40.7		46.5		> 100		> 100		> 100		> 100
COc1ccc2c(c1)/C(=C/c1c(C)nc3sc(C)nn13)C(=O)N2	3.07	> 50	7.74	> 100	2.31	> 100	2.18	> 100	0.394		5.49	> 100	1.09	> 32.6	4.17	> 100	1.94	> 37	6.24	> 100
Cc1cc(I)cc(CN(C)CCCCN2CCCCC2)c1O	11.4	25.4	27.4	96.8	13.6	29.5	17.7	41	4.03	17.1	11.5	24	13.2	26.7	8.68	25.5	19	45.9	2.62	6.98
CC12CCC(O)CC1CCC1C2CCC2(C)C(C3=CC(=O)OC3)CCC12O (stereo not drawn)		25.6		1.96		> 19.8		19.4		> 90.5		10.6		3.99		> 30		12.8		12.8
CC/C=C\CCC/C=C1/C(=O)C=C[C@@H]1C/C=C\CCCC(=O)OC	19.8	34.7	11.1	28.4	4.12	13.5	3.3	11.5	2.46	11.6	1.59	3.28	3.9	14.2	2.93	8.15	4.84	17.7	2.57	6.49
CC(C)CCC[C@@H](C)[C@H]1CC[C@H]2[C@@H]3CC=C4C[C@@H](C(C(=O)O)C(=O)O)CC[C@]4(C)[C@H]3CC[C@]12C	0.0862	0.216	0.145	0.547	0.076	0.199	0.166	1.12	0.144	2	0.139	0.468	0.16	0.497	0.353	0.938	0.237	8.91	0.0764	0.187
